In publication PMC13083723 (Patterns, 2026):
Values joined by “and” are separate entries in the source; they are usually repeats but may differ in a detail not shown here. Equal values may be shown once. Where a name gives a salt, the structure may show the parent alone. Read-outs that look alike come from different tables or passages of the source.

Assays:
Vero-E6 cells = assay: cells; assay type: cell-based
SARS-CoV-2 [1] = details: cited from earlier work; for CaCo2 CPE inhibition %: Caco-2, 20 µM; for CaCo2 CPE assay (active): Caco-2
A549-ACE2 cells = assay: cells; assay type: cell-based; details: A549-ACE2, 24 h, read-out: PLD_Effect(%) A549-ACE2
[2] = cited from earlier work
SARS-CoV-2 [3] = details: cited from earlier work; for Vero-E6 CPE inhibition %: 10 µM
[4] = Chlorocebus sabaeus, Vero C1008, 24 h, read-out: PLD Effect in % 5 µM
[5] = Chlorocebus sabaeus, Vero C1008, 24 h, read-out: PLD Effect in % 10 µM
[6] = Chlorocebus sabaeus, Vero C1008, 24 h, read-out: PLD Effect in % 20 µM
[7] = Chlorocebus sabaeus, Vero C1008, read-out: PLD EC50 µM
[8] = Chlorocebus sabaeus, Vero C1008, 24 h, read-out: PLD_Effect(%) VERO-E6
[9] = Chlorocebus sabaeus, Vero C1008, 24 h; read-out: PLD Effect in % 5 µM
[10] = Chlorocebus sabaeus, Vero C1008, 24 h; read-out: PLD Effect in % 10 µM
[11] = Chlorocebus sabaeus, Vero C1008, 24 h; read-out: PLD Effect in % 20 µM
[12] = Chlorocebus sabaeus, Vero C1008; read-out: PLD EC50
[13] = value is the negative log10 of mol/L

SMILES | EC50 (Vero-E6 cells; [7]) | CaCo2 CPE inhibition % (SARS-CoV-2 [1]) | activation at 5 µM (Vero-E6 cells; [9]) | activation at 10 µM (Vero-E6 cells; [10]) | activation at 20 µM (Vero-E6 cells; [11]) | Vero-E6 CPE inhibition % (SARS-CoV-2 [3]) | other results
O=C(CCCN1CCC2(CC1)C(=O)N(Cc1cccc(F)c1)CN2c1ccccc1)c1ccc(F)cc1 [3'-fluorobenzylspiperone, reference compound] | 10.3 µM | 102.38 | – | – | – | – | PLD induction assay (active) (Vero-E6 cells): active; activation at 5 µM (Vero-E6 cells; [4]): 61.8%; activation at 10 µM (Vero-E6 cells; [5]): 41.3%; activation at 20 µM (Vero-E6 cells; [6]): 8.92%; CaCo2 CPE assay (active) (SARS-CoV-2 [1]): active
C[C@@H](NCCCc1cccc(C(F)(F)F)c1)c1cccc2ccccc12 [AMG-073 HCl, cinacalcet hydrochloride, reference compound] | – | – | 70.8% | 79.5% | 253% | -0.15 | activation at 10 µM (A549-ACE2 cells): 104%; activation at 10 µM (Vero-E6 cells; [8]): 61.8%; EC50 (Vero-E6 cells; [12]): 18.6 µM; pchembl_value (AC50) [2]: 6.14; AC50 ([2]; read-out: AC50 (value)): 0.73 µM
CN(C)C/C=C/C(=O)Nc1cc2c(Nc3ccc(F)c(Cl)c3)ncnc2cc1O[C@H]1CCOC1 [Afatinib, reference compound] | – | 60.16% | 129% | 249% | 146% | -0.39% | –
CCN(CC)CC1CCN(c2ncc3ncnc(Nc4ccc(F)c(Cl)c4)c3n2)CC1 [BIBU-1361, reference compound] | – | 78.51% | – | – | – | -0.24% | PLD Effect in % 5 µM (Vero-E6 cells; 5 µM): 160.51%; PLD Effect in % 10 µM (Vero-E6 cells; 10 µM): 180.15%; PLD Effect in % 20 µM (Vero-E6 cells; 20 µM): -42.53%; EC50 (Vero-E6 cells; read-out: PLD EC50): 0.63 µM
CNCc1ccc(C)c(NC(=O)c2ccc(Nc3nc(-c4ccccc4)c4ccccc4n3)cc2)c1 [BMS-833923 (XL139), reference compound] | – | 68.77% | 72.2% | 59.1% | -39.6% | -0.37 | EC50 (Vero-E6 cells; [12]): 1.11 µM
CN1CCC(Nc2ncc3ncnc(Nc4ccc(F)c(Cl)c4)c3n2)CC1 [BiBX-1382, reference compound] | 0.61 µM | – | 85.8% | 75.5% | -0.64% | 0.28% | –
O=C(Nc1ccc(CN2CCOCC2)cc1)c1ccc(-c2cccc(Cl)c2)o1 [CID-2011756, reference compound] | – | 96.96% | – | – | – | 0.15 | PLD Effect in % 5 µM (Vero-E6 cells; 5 µM): 27.66%; PLD Effect in % 10 µM (Vero-E6 cells; 10 µM): 31.32%; PLD Effect in % 20 µM (Vero-E6 cells; 20 µM): 55.98%; EC50 (Vero-E6 cells; read-out: PLD EC50): > 20 µM
Cc1cc(Nc2ncc(Cl)c(Nc3ccccc3S(=O)(=O)C(C)C)n2)c(OC(C)C)cc1C1CCNCC1 [Ceritinib, reference compound] | 2.18 µM | 59.98% | 91.9% | 116% | 137% | -0.35% | –
O=C(c1ccc(F)c(F)c1Nc1ccc(I)cc1F)N1CC(O)([C@@H]2CCCCN2)C1 [Cobimetinib, reference compound] | 1.34 µM | 61.58% | 112% | 135% | 133% | -0.31% | –
c1ccc(CNc2nc(NCc3ccccc3)c3ccccc3n2)cc1 [DBeQ, reference compound] | – | 100.89% | – | – | – | -0.3 | PLD Effect in % 5 µM (Vero-E6 cells; 5 µM): 73.45%; PLD Effect in % 10 µM (Vero-E6 cells; 10 µM): 88.88%; PLD Effect in % 20 µM (Vero-E6 cells; 20 µM): -36.11%; EC50 (Vero-E6 cells; read-out: PLD EC50): 1.19 µM
CCN1CCN(Cc2ccc(C(=O)Nc3ccc(C)c(Oc4ccc5c(c4)CC(=O)N5)c3)cc2C(F)(F)F)CC1 [DDR1-IN-1, reference compound] | – | 77.58% | 55.7% | 75.8% | 21.8% | -0.37% | –
O=C1Nc2ccc(Cl)c3c2C1(CCCCN1CC=C(c2ccc(Cl)cc2)CC1)CCC3 (centres unmarked) [DR-4485, reference compound] | – | 82.83% | – | – | – | -0.26% | PLD Effect in % 5 µM (Vero-E6 cells; 5 µM): 94.34%; PLD Effect in % 10 µM (Vero-E6 cells; 10 µM): 201.85%; PLD Effect in % 20 µM (Vero-E6 cells; 20 µM): -16.80%
COC(=O)C1=C(C)NC(C)=C(C(=O)OCCCN2CCC(c3ccccc3)(c3ccccc3)CC2)[C@@H]1c1cccc([N+](=O)[O-])c1 [Dexniguldipine, reference compound] | 2.48 µM | 97.57% | – | – | – | -0.15% | activation at 5 µM (Vero-E6 cells; [4]): 83.1%; activation at 10 µM (Vero-E6 cells; [5]): 115%; activation at 20 µM (Vero-E6 cells; [6]): 127%
COc1ccc(NC(=O)c2ccc(-c3ccc(-c4noc(C)n4)cc3C)cc2)cc1N1CCN(C)CC1 [GR-127935, reference compound] | 1.12 µM | 53.73% | 136% | 162% | -40.2% | -0.76% | –
CCCCN1[C@@H]2CC[C@H]1C[C@@H](OC(c1ccc(F)cc1)c1ccc(F)cc1)C2 [JHW-007, reference compound] | – | 93.14% | – | – | – | -0.32% | PLD Effect in % 5 µM (Vero-E6 cells; 5 µM): 115.34%; PLD Effect in % 10 µM (Vero-E6 cells; 10 µM): 112.39%; PLD Effect in % 20 µM (Vero-E6 cells; 20 µM): 86.69%; EC50 (Vero-E6 cells; read-out: PLD EC50): 0.71 µM
CSc1ccccc1Nc1nc(N2CCNCC2)nc2c(NCC3CC3)ncnc12 [KHK-IN-1, reference compound] | – | toxic | – | – | – | toxic | PLD EC50 µM (Vero-E6 cells): toxic; PLD Effect in % 5 µM (Vero-E6 cells; 5 µM): toxic; PLD Effect in % 10 µM (Vero-E6 cells; 10 µM): toxic; PLD Effect in % 20 µM (Vero-E6 cells; 20 µM): toxic; CaCo2 EC50 µM (SARS-CoV-2 [1]): toxic; Vero-E6 EC50 µM (SARS-CoV-2 [3]): toxic
COc1cc(C(=O)NC2CCN(C)CC2)c(F)cc1Nc1ncc2c(n1)N(C1CCCC1)CC(F)(F)C(=O)N2C [TAK-960, reference compound] | – | 91.64% | – | – | – | 2.67% | –
CCN(CC)CCO[C@H]1CC[C@@]2(C)C(=CC[C@@H]3[C@@H]2CC[C@]2(C)C(=O)CC[C@@H]32)C1 [U-18666A, reference compound] | – | 77.44% | – | – | – | – | PLD Effect in % 5 µM (Vero-E6 cells; 5 µM): 84.91%; PLD Effect in % 10 µM (Vero-E6 cells; 10 µM): 98.22%; PLD Effect in % 20 µM (Vero-E6 cells; 20 µM): 112.55%; EC50 (Vero-E6 cells; read-out: PLD EC50): 1.77 µM
COc1cc2c(NC3CCN(C(C)C)CC3)nc(C3CCCCC3)nc2cc1OCCCN1CCCC1 [UNC0638] | – | – | – | – | – | – | activation at 10 µM (A549-ACE2 cells): 112%; activation at 10 µM (Vero-E6 cells; [8]): 60.7%; pchembl_value (type IC50), Histone-lysine N-methyltransferase, H3 lysine-9 specific 3 [2]: 7.26 and 7.82 and 7.92; pchembl_value (type IC50), Histone-lysine N-methyltransferase, H3 lysine-9 specific 5 [2]: 7.72; pchembl_value (type Ki), Histone-lysine N-methyltransferase, H3 lysine-9 specific 3 [2]: 8.43 and 7.75; IC50 ([2]; read-out: IC50 (value), Histone-lysine N-methyltransferase, H3 lysine-9 specific 3): 0.055 µM and 0.015 µM; IC50 ([2]; read-out: IC50 (value), Histone-lysine N-methyltransferase, H3 lysine-9 specific 5): 0.019 µM; IC50 ([2]; read-out: IC50 (value), Lysine-specific histone demethylase 1): 0.18 µM; Ki ([2]; read-out: Ki (value), Histone-lysine N-methyltransferase, H3 lysine-9 specific 3): 0.0037 µM; pchembl_value (type IC50), Lysine-specific histone demethylase 1 [2, 13]: 6.75
Cn1ncc(Cl)c1-c1cc(C(=O)N[C@H](CN)Cc2ccc(F)c(F)c2)oc1Cl [Uprosertib] | – | – | – | – | – | – | activation at 10 µM (A549-ACE2 cells): 92%; activation at 10 µM (Vero-E6 cells; [8]): 82.6%; IC50 ([2]; read-out: IC50 (value)): 0.339 µM; pchembl_value (IC50) [2, 13]: 6.47
O=C(NCCN1CCC2(CC1)C(=O)NCN2c1cccc(F)c1)c1ccc2ccccc2c1 [VU-0364739] | – | – | – | – | – | – | activation at 10 µM (A549-ACE2 cells): 113%; activation at 10 µM (Vero-E6 cells; [8]): 55.1%; IC50 ([2]; read-out: IC50 (value)): 0.02 µM; pchembl_value (IC50) [2, 13]: 7.70
OCCNC1CCCc2c1[nH]c1ccc(-c3ccccc3)cc21 (centres unmarked) [casin, reference compound] | – | 71.19% | – | – | – | – | PLD Effect in % 5 µM (Vero-E6 cells; 5 µM): 116.35%; PLD Effect in % 10 µM (Vero-E6 cells; 10 µM): 193.97%; PLD Effect in % 20 µM (Vero-E6 cells; 20 µM): 134.63%; EC50 (Vero-E6 cells; read-out: PLD EC50): 3.31 µM
Cc1cccc(C)c1NC(=O)CN1CCN(CCCC(c2ccc(F)cc2)c2ccc(F)cc2)CC1 [lidoflazine, reference compound] | 5.51 µM | – | 65.3% | 80.2% | 129% | 0.5% | activation at 10 µM (A549-ACE2 cells): 90.9%; activation at 10 µM (Vero-E6 cells; [8]): 52.6%
Cc1ccc(NC(=O)c2ccc(CN3CCN(C)CC3)cc2)cc1Nc1nc(-c2cccnc2)cs1 [masitinib (AB1010), masitinib, reference compound] | – | 107.90% | 43.1% | 45.2% | 53.3% | – | PLD induction assay (active) (Vero-E6 cells): active; EC50 (Vero-E6 cells; [12]): 2.57 µM; CaCo2 CPE assay (active) (SARS-CoV-2 [1]): active
OC(c1cc(C(F)(F)F)nc2c(C(F)(F)F)cccc12)C1CCCCN1 (centres unmarked) [mefloquine hydrochloride, reference compound] | 1.48 µM | – | – | – | – | -0.32% | activation at 5 µM (Vero-E6 cells; [4]): 102%; activation at 10 µM (Vero-E6 cells; [5]): 188%; activation at 20 µM (Vero-E6 cells; [6]): 174%
CCN(CC)CCCC(C)Nc1c2ccc(Cl)cc2nc2ccc(OC)cc12 (centres unmarked) [quinacrine hydrochloride, reference compound] | 1.55 µM | – | 145% | 141% | -13.2% | -0.23% | –
C[C@@H]1CN(CCCn2c3ccccc3c3ccccc32)C[C@H](C)N1 [rimcazole] | – | – | – | – | – | – | activation at 10 µM (A549-ACE2 cells): 109%; activation at 10 µM (Vero-E6 cells; [8]): 99.9%; Log IC50 (value) [2]: -6.23; pchembl_value (Log IC50) [2]: 6.23; Ki ([2]; read-out: Ki (value)): 0.908 µM; pchembl_value (Ki) [2, 13]: 6.04
